This assay has as its target LeuS (Escherichia coli, UniProt P07813). As to the kind of experiment: HAMA hydroxamate LC-MS/MS competition assay. The conditions noted are these: amino acid mixture. The assay is classed as biochemical.

Structures are written as SMILES.

`CC(C)C[C@H](N)C(=O)O` [L-Leu]: the “HAMA hydroxamate LC-MS/MS competition assay” value is “all three specificities were correctly identified and almost no side-activities detected”.
